From US8987258B2 (priority 2008, dated 2015)

Biological target: T1, SIRT1 (Homo sapiens, UniProt Q96EB6)
T1 sequence (Q96EB6 1-747): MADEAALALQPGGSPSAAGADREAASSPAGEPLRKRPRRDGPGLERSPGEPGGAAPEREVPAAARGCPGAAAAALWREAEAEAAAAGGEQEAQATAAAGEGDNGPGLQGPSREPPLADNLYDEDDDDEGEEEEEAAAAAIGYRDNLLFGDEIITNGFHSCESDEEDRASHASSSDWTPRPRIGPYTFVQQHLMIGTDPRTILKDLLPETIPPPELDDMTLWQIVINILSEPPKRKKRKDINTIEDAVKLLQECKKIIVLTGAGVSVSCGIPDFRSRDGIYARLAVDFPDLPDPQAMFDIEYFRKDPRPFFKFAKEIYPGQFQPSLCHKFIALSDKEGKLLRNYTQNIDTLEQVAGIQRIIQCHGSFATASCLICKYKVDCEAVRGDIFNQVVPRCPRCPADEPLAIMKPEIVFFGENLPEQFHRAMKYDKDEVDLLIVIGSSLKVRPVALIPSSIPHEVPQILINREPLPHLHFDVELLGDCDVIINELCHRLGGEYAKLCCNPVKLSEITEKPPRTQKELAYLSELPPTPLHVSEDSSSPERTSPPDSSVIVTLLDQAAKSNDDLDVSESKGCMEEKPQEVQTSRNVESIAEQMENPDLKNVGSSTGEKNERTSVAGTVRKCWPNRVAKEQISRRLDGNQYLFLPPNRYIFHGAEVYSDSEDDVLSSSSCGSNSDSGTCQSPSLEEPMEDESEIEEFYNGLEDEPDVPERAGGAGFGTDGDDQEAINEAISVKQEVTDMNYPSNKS
Test: Mass spectrometry based SIRT1 deacetylase activation assay
Assay type: biochemical
Settings: for EC1.5 μM: 0.5 μM peptide substrate, 120 μM βNAD+, 10 nM SIRT1, 25 min, 25° C.; for Emax: 25 min, mass spectrometry assay, read-out: % Fold Act. (percent maximum fold activation)

EC1.5 μM	Emax [%]	SMILES
A (EC1-5<1.0)	> 200	O=C(Nc1cccc2c(=O)cc(-c3ccccc3Cl)oc12)c1cccc(N2CCOCC2)n1 [Compound 324]
A (EC1-5<1.0)	> 200	O=C(Nc1cccc2c(=O)cc(-c3ccccc3Cl)oc12)c1cccc(N2CCCC2)n1 [Compound 325]
C (EC1.5>25 μM)	< 200	O=c1cc(-c2ccccc2C(F)(F)F)oc2c(NS(=O)(=O)c3cccnc3)cccc12 [Compound 326, N-(4-oxo-2-(2-(trifluoromethyl)phenyl)-4H-chromen-8-yl)pyridine-3-sulfonamide]
A (EC1-5<1.0)	> 200	O=C(Nc1cccc2c(=O)cc(-c3ccccc3Cl)oc12)c1cccc(CN2CCCC2)n1 [Compound 327]
B (EC1.5 1-25 μM)	> 200	O=C(Nc1cccc2c(=O)cc(-c3ccccc3C(F)(F)F)oc12)c1cccc(CN2CCOCC2)c1 [Compound 328]
A (EC1-5<1.0)	> 200	O=C(Nc1cccc2c(=O)cc(-c3ccccc3Cl)oc12)c1cccc(N2CCCC2)c1 [Compound 329]
B (EC1.5 1-25 μM)	> 200	O=C(Nc1cccc2c(=O)cc(-c3ccccc3Cl)oc12)c1cccc(CN2CCOCC2)c1 [Compound 330]
A (EC1-5<1.0)	> 200	O=C(Nc1cccc2c(=O)cc(-c3ccccc3Cl)oc12)c1cccc(CN2CCOCC2)n1 [Compound 331]
B (EC1.5 1-25 μM)	> 200	O=C(Nc1cccc2c(=O)cc(-c3ccccc3Cl)oc12)c1cccnc1OCC(O)CO (centres unmarked) [Compound 332]
B (EC1.5 1-25 μM)	> 200	O=C(Nc1cccc2c(=O)cc(-c3ccccc3Cl)oc12)c1cccc(CN2CCCC2)c1 [Compound 333]
A (EC1-5<1.0)	> 200	O=C(Nc1cccc2c(=O)cc(-c3ccccc3Cl)oc12)c1cccc(OCC(O)CO)n1 (centres unmarked) [Compound 334]
A (EC1-5<1.0)	> 200	O=C(Nc1cccc2c(=O)cc(-c3ccccc3Cl)oc12)c1ncccn1 [Compound 335]
B (EC1.5 1-25 μM)	> 200	O=C(Nc1cccc2c(=O)cc(-c3ccccc3Cl)oc12)c1cccc(N2CCOCC2)c1 [Compound 336]
A (EC1-5<1.0)	> 200	Cn1nccc1C(=O)Nc1cccc2c(=O)cc(-c3ccccc3Cl)oc12 [Compound 337]
A (EC1-5<1.0)	> 200	O=C(Nc1cccc2c(=O)cc(-c3ccccc3C(F)F)oc12)c1cccc(OCC(O)CO)n1 (centres unmarked) [Compound 338]
A (EC1-5<1.0)	> 200	O=C(Nc1cccc2c(=O)cc(-c3ccccc3C(F)F)oc12)c1cccc(CN2CCOCC2)n1 [Compound 339]
